According to US20220220128A1, “HETEROCYCLIC COMPOUNDS AS KINASE INHIBITORS, COMPOSITIONS COMPRISING THE HETEROCYCLIC COMPOUND, AND METHODS OF USE THEREOF” (JS Innopharm (Shanghai) Ltd, priority 2019, published 2022):

Experiments:
human RET kinase = molecular target: T1, human RET kinase (Homo sapiens, UniProt P07949); assay: RET Kinase Assay (LanthaScreen TR-FRET enzymatic assay); type: biochemical; conditions: 7 nM RET, 23 μM ATP
T1 construct: purchased Carna 08-159
Protocol: Compounds were tested in a LanthaScreen™ time-resolved fluorescence energy transfer (TR-FRET) enzymatic assay from Invitrogen. The assay used human RET kinase (Carna 08-159). Test compounds were prepared and diluted in DMSO in 3-fold serial dilutions to 50× of the final testing concentrations. The compounds were then further diluted to 5× by the kinase reaction buffer (50 mM HEPES pH 7.5, 0.0015% Brij-35). The enzymatic reaction for compound testing was performed in a white 384-well polypropylene plate (Corning 3573) with a total reaction volume of 25 μl containing 7 nM RET, 3 μM peptide substrate FAM-P2 (GL Biochem 112394), and 23 μM ATP (Sigma A7699-1G). The assay started with loading RET diluted in kinase reaction buffer to wells, followed by addition of equal volume of 5× compounds for 15-min incubation at the room temperature for pre-treatment. The enzymatic reaction was initiated by addition of mixture of the substrate and ATP prepared in kinase reaction buffer. After incubation at 28° C. for one hour, 25 μl of stopper buffer (a mixture of 100 mM HEPES pH 7.5 buffer, 0.015% Brij-35, 50 mM EDTA and 0.2% of coating reagent 3 (Cliper Lifesciences)) and produce TR-FRET signals. After 30 minutes of incubation at room temperature, the plate was read in a Caliper with the following settings: Excitation 340 nm (30)/Emission1 495 nm (10)/Emission2 520 nm (25). The TR-FRET values were dimensionless numbers that were calculated as the ratio of the acceptor ([…]) signal to the donor (Terbium) signal. Percent of control was calculated as the percentage of compound-treated vs 1% DMSO vehicle-treated. The dose-response curves were generated and the IC50s were calculated by nonlinear sigmoid curve fitting using XLFit.

human KDR kinase = molecular target: T2, human KDR kinase (Homo sapiens, UniProt P35968); assay: KDR Kinase Assay (LanthaScreen TR-FRET enzymatic assay); type: biochemical; conditions: 1.2 nM KDR, 92 μM ATP
T2 construct: purchased Carna 08-191
T2 sequence (P35968 20-1356): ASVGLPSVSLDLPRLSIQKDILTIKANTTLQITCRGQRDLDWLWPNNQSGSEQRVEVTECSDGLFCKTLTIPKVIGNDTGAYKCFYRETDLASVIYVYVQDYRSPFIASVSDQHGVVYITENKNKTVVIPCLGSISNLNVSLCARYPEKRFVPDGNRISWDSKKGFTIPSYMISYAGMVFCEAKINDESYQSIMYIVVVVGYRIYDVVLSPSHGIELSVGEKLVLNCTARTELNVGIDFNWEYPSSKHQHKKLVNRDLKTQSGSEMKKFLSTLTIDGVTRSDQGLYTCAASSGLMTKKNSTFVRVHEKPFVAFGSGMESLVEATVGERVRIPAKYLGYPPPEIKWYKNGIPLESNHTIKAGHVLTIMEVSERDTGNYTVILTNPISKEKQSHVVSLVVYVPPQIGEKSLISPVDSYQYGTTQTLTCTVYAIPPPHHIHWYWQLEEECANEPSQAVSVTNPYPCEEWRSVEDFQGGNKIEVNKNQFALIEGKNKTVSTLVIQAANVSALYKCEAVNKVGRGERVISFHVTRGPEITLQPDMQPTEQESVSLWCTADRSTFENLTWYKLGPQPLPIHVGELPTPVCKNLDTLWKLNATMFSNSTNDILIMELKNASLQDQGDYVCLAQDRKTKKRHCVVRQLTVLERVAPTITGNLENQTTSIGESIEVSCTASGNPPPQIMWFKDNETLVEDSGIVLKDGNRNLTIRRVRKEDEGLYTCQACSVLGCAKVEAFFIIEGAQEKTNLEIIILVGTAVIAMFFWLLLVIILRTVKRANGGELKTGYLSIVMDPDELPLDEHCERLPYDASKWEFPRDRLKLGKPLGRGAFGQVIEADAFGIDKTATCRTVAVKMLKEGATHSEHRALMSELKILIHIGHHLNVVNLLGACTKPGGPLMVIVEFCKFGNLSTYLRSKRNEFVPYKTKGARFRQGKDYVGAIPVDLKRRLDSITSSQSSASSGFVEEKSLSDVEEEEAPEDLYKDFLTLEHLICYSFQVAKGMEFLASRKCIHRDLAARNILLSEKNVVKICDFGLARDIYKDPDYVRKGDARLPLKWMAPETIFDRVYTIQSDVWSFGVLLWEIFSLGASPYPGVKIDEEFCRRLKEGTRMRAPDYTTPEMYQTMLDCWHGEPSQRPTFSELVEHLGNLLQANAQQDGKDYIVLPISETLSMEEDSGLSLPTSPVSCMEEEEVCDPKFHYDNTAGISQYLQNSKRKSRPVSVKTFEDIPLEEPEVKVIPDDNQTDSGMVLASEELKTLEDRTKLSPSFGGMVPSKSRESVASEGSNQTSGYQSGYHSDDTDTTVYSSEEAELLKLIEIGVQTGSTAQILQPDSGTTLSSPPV
Protocol: Compounds were tested in a LanthaScreen™ time-resolved fluorescence energy transfer (TR-FRET) enzymatic assay from Invitrogen. The assay used human KDR kinase (Carna 08-191). Test compounds were prepared and diluted in DMSO in 3-fold serial dilutions to 50× of the final testing concentrations. The compounds were then further diluted to 5× by the kinase reaction buffer (50 mM HEPES pH 7.5, 0.0015% Brij-35). The enzymatic reaction for compound testing was performed in a white 384-well polypropylene plate (Corning 3573) with a total reaction volume of 25 μl containing 1.2 nM KDR, 3 μM peptide substrate FAM-P22 (GL Biochem 112393), and 92 μM ATP (Sigma A7699-1G). The assay started with loading RET diluted in kinase reaction buffer to wells, followed by addition of equal volume of 5× compounds for 15-min incubation at the room temperature for pre-treatment. The enzymatic reaction was initiated by addition of mixture of the substrate and ATP prepared in kinase reaction buffer. After incubation at 28° C. for one hour, 25 μl of stopper buffer (a mixture of 100 mM HEPES pH 7.5 buffer, 0.015% Brij-35, 50 mM EDTA and 0.2% of coating reagent 3 (Cliper Lifesciences)) and produce TR-FRET signals. After 30 minutes of incubation at room temperature, the plate was read in a Caliper with the following settings: Excitation 340 nm (30)/Emission1 495 nm (10)/Emission2 520 nm (25). The TR-FRET values were dimensionless numbers that were calculated as the ratio of the acceptor ([…]) signal to the donor (Terbium) signal. Percent of control was calculated as the percentage of compound-treated vs 1% DMSO vehicle-treated. The dose-response curves were generated and the IC50s were calculated by nonlinear sigmoid curve fitting using XLFit.

TT cells = assay: TT Cell Proliferation Assay (WST-8, 8 days); type: cell-based; conditions: Homo sapiens, TT, 192 h, growth inhibition in TT cells, read-out: TT Cellular Activity
Protocol: Compounds disclosed herein were tested for the inhibition of RET by a cancer cell proliferation assay commonly known as MTT assay. In this assay, a complete media was prepared by adding 10% fetal bovine serum to RPMI-1640 medium (Life technology). TT cells were added to each of 88 wells of a 96 well plate at a seeding density of 6,000 cells/well/90 μL. The cells were allowed to attach to the plate by incubating at 37° C. for 24 hours. The compound was dissolved in DMSO (SIGMA). A solution of test compound was prepared in complete media by serial dilution to obtain the following concentrations: 50 μM, 15 μM, 5 μM, 1.5 μM, 0.5 μM, 0.15 μM, 0.05 μM, 0.015 μM and 0.005 μM. The test compound solution (10 μL) was added to each of 80 cell-containing wells. The final concentrations of the compound were following: 5 μM, 1.5 μM, 0.5 μM, 0.15 μM, 0.05 μM, 0.015 μM, 0.005 μM, 0.0015 μM and 0.0005 μM. The final concentration of DMSO is 0.5%. To the 8 remaining cell-containing wells, only complete media (containing 0.5% DMSO) was added to form a control group in order to measure maximal proliferation. To the remaining 8 empty wells, complete media was added to for a vehicle control group in order to measure background. The plates were incubated at 37° C. for 8 days. 10 μL WST-8 solution (DOJINDO, Cell Counting KIT-8) was added to each well. The plates were further incubated at 37° C. for 5 hours, and then read for the absorbance using a microplate reader at 450 nm. The IC50 was calculated using GraphPad Prism.

T1 sequence (P07949 29-1114): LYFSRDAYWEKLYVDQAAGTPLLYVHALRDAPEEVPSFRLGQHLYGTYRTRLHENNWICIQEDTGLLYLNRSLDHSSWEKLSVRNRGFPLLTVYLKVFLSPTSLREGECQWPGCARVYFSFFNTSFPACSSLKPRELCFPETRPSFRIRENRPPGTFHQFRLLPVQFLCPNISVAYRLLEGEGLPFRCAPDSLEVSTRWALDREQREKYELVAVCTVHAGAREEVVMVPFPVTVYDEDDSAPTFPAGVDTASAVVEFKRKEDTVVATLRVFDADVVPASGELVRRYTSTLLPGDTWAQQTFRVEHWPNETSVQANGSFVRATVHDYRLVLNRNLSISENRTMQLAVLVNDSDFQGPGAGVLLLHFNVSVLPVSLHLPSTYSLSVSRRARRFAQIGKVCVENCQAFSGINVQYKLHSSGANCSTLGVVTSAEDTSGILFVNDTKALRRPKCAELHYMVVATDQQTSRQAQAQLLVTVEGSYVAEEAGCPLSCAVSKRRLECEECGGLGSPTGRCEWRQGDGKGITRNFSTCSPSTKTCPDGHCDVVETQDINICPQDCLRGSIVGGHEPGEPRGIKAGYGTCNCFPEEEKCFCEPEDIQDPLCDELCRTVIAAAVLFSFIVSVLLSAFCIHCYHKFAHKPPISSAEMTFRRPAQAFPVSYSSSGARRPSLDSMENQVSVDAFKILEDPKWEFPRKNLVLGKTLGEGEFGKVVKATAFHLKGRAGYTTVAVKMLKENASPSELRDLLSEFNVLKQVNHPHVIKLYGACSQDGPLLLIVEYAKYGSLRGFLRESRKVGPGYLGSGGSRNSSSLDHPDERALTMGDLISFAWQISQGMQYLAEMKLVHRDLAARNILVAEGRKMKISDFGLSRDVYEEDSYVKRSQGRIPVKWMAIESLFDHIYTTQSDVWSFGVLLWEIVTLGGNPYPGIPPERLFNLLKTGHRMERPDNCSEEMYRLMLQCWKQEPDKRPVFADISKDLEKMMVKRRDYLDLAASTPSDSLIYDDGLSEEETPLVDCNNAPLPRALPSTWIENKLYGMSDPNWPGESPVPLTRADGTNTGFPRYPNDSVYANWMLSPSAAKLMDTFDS

| SMILES | IC50 (human RET kinase) [nM] | IC50 (human KDR kinase) [nM] | IC50 (TT cells) [nM] |
| --- | --- | --- | --- |
| CC(C)CC(=O)NC[C@@H]1[C@H]2CN(c3ccc(-c4cc(-c5cnn(C)c5)cn5ncc(C#N)c45)cn3)C[C@@H]12 [Example 88, N-(((1R,5S,6s)-3-(5-(3-cyano-6-(1-methyl-1H-pyrazol-4-yl)pyrazolo[1,5-a]pyridin-4-yl)pyridin-2-yl)-3-azabicyclo[3.1.0]hexan-6-yl)methyl)-3-methylbutanamide] | ≤ 10 | 10 to 50 | ≤ 10 |
| CC(C)C(O)C(=O)NC12CC3CC(C1)N(c1ccc(-c4cc(OCC(C)(C)O)cn5ncc(C#N)c45)cn1)C(C3)C2 [Example 99, N-((1R,3 S,5s,7s)-2-(5-(3-cyano-6-(2-hydroxy-2-methylpropoxy)pyrazolo[1,5-a]pyridin-4-yl)pyridin-2-yl)-2-azaadamantan-5-yl)-2-hydroxy-3-methylbutanamide] | ≤ 10 | 10 to 50 | 10 to 50 |
| Cn1ccc(-c2cc(-c3ccc(N4C[C@@H]5C[C@@](C)(NC(=O)c6c(F)cccc6Cl)C[C@@H]5C4)nc3)c3c(C#N)cnn3c2)n1 [Example 93, 2-chloro-N-((3aR,5s,6aS)-2-(5-(3-cyano-6-(1-methyl-1H-pyrazol-3-yl)pyrazolo[1,5-a]pyridin-4-yl)pyridin-2-yl)-5-methyloctahydrocyclopenta[c]pyrrol-5-yl)-6-fluorobenzamide] | ≤ 10 | 10 to 50 | 10 to 50 |
| CCOc1cc(-c2ccc(N3C[C@@H]4C[C@@](C)(NC(=O)c5ncccc5Cl)C[C@@H]4C3)nc2)c2c(C#N)cnn2c1 [Example 51, 3-chloro-N-((3aR,5s,6aS)-2-(5-(3-cyano-6-ethoxypyrazolo[1,5-a]pyridin-4-yl)pyridin-2-yl)-5-methyloctahydrocyclopenta[c]pyrrol-5-yl)picolinamide] |  | 10 to 50 | 10 to 50 |
| CCOc1cc(-c2ccc(N3C[C@H]4C[C@H](NC(=O)c5ncccc5Cl)C[C@H]4C3)nc2)c2c(C#N)cnn2c1 [Example 49, 3-chloro-N-((3aR,5s,6aS)-2-(5-(3-cyano-6-ethoxypyrazolo[1,5-a]pyridin-4-yl)pyridin-2-yl)octahydrocyclopenta[c]pyrrol-5-yl)picolinamide] |  | 10 to 50 | 10 to 50 |
| CCOc1cc(-c2ccc(N3C[C@H]4C[C@@H](NC(=O)c5ncccc5Cl)C[C@H]4C3)nc2)c2c(C#N)cnn2c1 [Example 48, 3-chloro-N-((3aR,5r,6aS)-2-(5-(3-cyano-6-ethoxypyrazolo[1,5-a]pyridin-4-yl)pyridin-2-yl)octahydrocyclopenta[c]pyrrol-5-yl)picolinamide] |  | 10 to 50 | ≤ 10 |
| CCOc1cc(-c2ccc(N3C[C@@H]4[C@H](C3)[C@@H]4NC(=O)c3ncccc3Cl)nc2)c2c(C#N)cnn2c1 [Example 43, 3-chloro-N-((1R,5S,6r)-3-(5-(3-cyano-6-ethoxypyrazolo[1,5-a]pyridin-4-yl)pyridin-2-yl)-3-azabicyclo[3.1.0]hexan-6-yl)picolinamide] |  | > 100 | > 100 |
| CCOc1cc(-c2ccc(N3C[C@@H]4[C@H](C3)[C@H]4NC(=O)c3ncccc3Cl)nc2)c2c(C#N)cnn2c1 [Example 38, 3-chloro-N-((1R,5S,6s)-3-(5-(3-cyano-6-ethoxypyrazolo[1,5-a]pyridin-4-yl)pyridin-2-yl)-3-azabicyclo[3.1.0]hexan-6-yl)picolinamide] |  | > 100 | > 100 |
| CCOc1cc(-c2ccc(N3C[C@@H]4[C@@H](CNC(=O)c5ncccc5Cl)[C@@H]4C3)nc2)c2c(C#N)cnn2c1 [Example 94, 3-chloro-N-(((1R,5S,6s)-3-(5-(3-cyano-6-ethoxypyrazolo[1,5-a]pyridin-4-yl)pyridin-2-yl)-3-azabicyclo[3.1.0]hexan-6-yl)methyl)picolinamide] |  | 50 to 100 | 10 to 50 |

Second part, led by results:

| IC50 (human RET kinase) [nM] | IC50 (human KDR kinase) [nM] | SMILES | IC50 (TT cells) [nM] |
| --- | --- | --- | --- |
| ≤ 10 |  | COc1ccc(NC(=O)C23CC4CC(C2)N(c2cnc(-c5cc(-c6cnn(C)c6)cn6ncc(C#N)c56)cn2)C(C4)C3)cn1 [Example 114, (1R,3S,5s,7s)-2-(5-(3-cyano-6-(1-methyl-1H-pyrazol-4-yl)pyrazolo[1,5-a]pyridin-4-yl)pyrazin-2-yl)-N-(6-methoxypyridin-3-yl)-2-azaadamantane-5-carboxamide] |  |
| ≤ 10 |  | CCOc1cc(-c2ccc(N3C4CC5CC3CC(C(=O)Nc3ccc(OC)nc3)(C5)C4)nc2)c2c(C#N)cnn2c1 [Example 134, (1R3S,5s,7s)-2-(5-(3-cyano-6-ethoxypyrazolo[1,5-a]pyridin-4-yl)pyridin-2-yl)-N-(6-methoxypyridin-3-yl)-2-azaadamantane-5-carboxamide] |  |
| ≤ 10 | 10 to 50 | COc1ccc(C(=O)N[C@]2(C)C[C@H]3CN(c4ccc(-c5cc(-c6ccn(C)n6)cn6ncc(C#N)c56)cn4)C[C@H]3C2)cn1 [Example 122, N-((3aR,5s,6aS)-2-(5-(3-cyano-6-(1-methyl-1H-pyrazol-3-yl)pyrazolo[1,5-a]pyridin-4-yl)pyridin-2-yl)-5-methyloctahydrocyclopenta[c]pyrrol-5-yl)-6-methoxynicotinamide] |  |
| ≤ 10 | > 100 | CC(=O)NC12CC3CC(C1)N(c1ccc(-c4cc(OCC(C)(C)O)cn5ncc(C#N)c45)cn1)C(C3)C2 [Example 130, N-((1R,3S,5s,7s)-2-(5-(3-cyano-6-(2-hydroxy-2-methylpropoxy)pyrazolo[1,5-a]pyridin-4-yl)pyridin-2-yl)-2-azaadamantan-5-yl)acetamide] |  |
| ≤ 10 |  | COc1ccc(NC(=O)[C@H]2[C@@H]3CN(c4ccc(-c5cc(OCC(C)(C)O)cn6ncc(C#N)c56)cn4)C[C@@H]32)cn1 [Example 175, (1R,5S,6r)-3-(5-(3-cyano-6-(2-hydroxy-2-methylpropoxy)pyrazolo[1,5-a]pyridin-4-yl)pyridin-2-yl)-N-(6-methoxypyridin-3-yl)-3-azabicyclo[3.1.0]hexane-6-carboxamide] |  |
| ≤ 10 | ≤ 10 | Cn1cc(-c2cc(-c3ccc(N4C[C@@H]5[C@@H](CNC(=O)c6c(F)cccc6Cl)[C@@H]5C4)nc3)c3c(C#N)cnn3c2)cn1 [Example 187, 2-chloro-N-(((1R,5S,6s)-3-(5-(3-cyano-6-(1-methyl-1H-pyrazol-4-yl)pyrazolo[1,5-a]pyridin-4-yl)pyridin-2-yl)-3-azabicyclo[3.1.0]hexan-6-yl)methyl)-6-fluorobenzamide] |  |
